A short description of data set [1]: Solubility study of losartan potassium with different solubilizers and pH modifying agent. The class given is physicochemical. Conditions: losartan potassium 10 mg/mL, below pH 5.5, citrate buffer 50 mM plus solubilizer. The text has this:
The solubility of losartan potassium below pH 5.5 was checked in the presence of different solubilizers and pH modifying agent.

The conditions of data set [2]: descriptive term; cited from earlier work.

The text below walks through data of patent publication US12496291B1, “Ready-to-use non-aqueous oral solution of losartan” (Liqmeds Worldwide Limited, priority 2024, dated 2025).

Structures are written as SMILES.

On to `CCCCc1nc(Cl)c(CO)n1Cc1ccc(-c2ccccc2-c2nnn[nH]2)cc1.[K]` [Losartan potassium, 2-butyl-4-chloro-1-[p-(o-1H-tetrazol-5-ylphenyl)benzyl]imidazole-5-methanol monopotassium salt], for which, in data set [1], the “Observations (solubility of losartan potassium)” value is given as “insolubility”. Also, in data set [2], the Solubility in alcohols entry is given as “soluble”; the Solubility in chloroform entry is recorded as “practically insoluble”; the “Solubility in common organic solvents, such as acetonitrile and methyl ethyl ketone” value is reported as “slightly soluble”; the Solubility in water result is “freely soluble”.
